In publication PMC8945229, “Development and Biological Characterization of a Novel Selective TrkA Agonist with Neuroprotective Properties against Amyloid Toxicity” (Biomedicines, 2022):

What was measured:
hippocampal brain slices = assay: LTP electrophysiology in hippocampal brain slices treated with oligomeric Aβ; set-up: species or system mouse; settings: oligomeric Aβ 5 μM, 500 nM, 3–5 h, vs slices treated only with Aβ
From the text: C57BL/6J mice were euthanized under halothane anesthesia and the brain was quickly dissected and placed in ice-cold oxygenated artificial cerebrospinal fluid (aCSF; 95% O2/5% CO2) containing (in mM): 125 NaCl, 3.5 KCl, 26 NaHCO3, 1 MgCl2 and 10 glucose (pH = 7.4, 315 mOsm/L). The brain was then placed onto the stage of a vibratome (Leica, VT1000S, Leica Biosystems GmbH, Wetzlar, Germany) and transverse slices containing the hippocampus were obtained. […] Field excitatory post-synaptic potentials (fEPSP) were amplified using an EXT-02F amplifier ([…]), digitized with ITC-18 (HEKA Elektronik GmbH, Reutlingern, Germany) and recorded in a computer running Windows 10 with IgorPro software (Wavemetrics Inc., Portland, OR, USA). […] The fEPSP amplitude was calculated from the minimum voltage value of the synaptic response (3–5 ms following stimulation) compared to the baseline voltage prior to stimulation. fEPSP recordings were acquired every 90″ for 10′ before TBS and continued for approximately 50′ following LTP induction. Recorded traces were analyzed using a custom-made script in the IgorPro software (Wavemetrics Inc., Portland, OR, USA).

CYP2C9 = target: T1, CYP2C9 (Homo sapiens, UniProt P11712); assay: Isozyme-specific CYP450 inhibition (Baculosomes); type: in vitro ADME; settings: 1 μM, 60 min
T1 construct: purchased Thermo Fisher Scientific; host or cells: Baculosomes (microsomes of baculovirus-infected insect cells: own knowledge)
T1 sequence (P11712 whole entry): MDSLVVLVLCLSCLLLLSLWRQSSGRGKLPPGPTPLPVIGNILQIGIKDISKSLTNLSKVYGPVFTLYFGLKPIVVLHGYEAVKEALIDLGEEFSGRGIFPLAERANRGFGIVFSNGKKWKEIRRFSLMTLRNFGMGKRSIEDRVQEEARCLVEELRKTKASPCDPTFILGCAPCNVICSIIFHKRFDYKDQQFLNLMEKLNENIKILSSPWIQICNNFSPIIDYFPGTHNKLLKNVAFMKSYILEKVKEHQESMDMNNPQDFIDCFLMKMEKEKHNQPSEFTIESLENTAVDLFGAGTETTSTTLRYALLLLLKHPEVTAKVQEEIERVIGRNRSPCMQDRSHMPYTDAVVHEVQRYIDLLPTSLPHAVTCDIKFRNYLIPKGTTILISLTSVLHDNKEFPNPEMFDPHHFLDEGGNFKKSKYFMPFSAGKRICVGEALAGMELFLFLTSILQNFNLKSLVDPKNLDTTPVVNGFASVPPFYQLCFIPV
Method: (§1) Baculosomes® expressing CYP1A2, CYP2A6, CYP2B6, CYP2C9, CYP2C19, CYP2D6 and CYP3A4 human CYP450 isoenzymes were purchased from Thermo Fisher Scientific (Waltham, MA, USA). All reagents were handled and prepared according to the manufacturer’s protocol. ENT-A013 was tested at 1 μM. Enzymatic activity in the presence of ΕΝΤ-A013 was assessed based on the kinetic model for CYP1A2, CYP2A6, CYP2B6, CYP2C9, CYP2C19, CYP2D6 and CYP3A4 isoforms. Reactions took place in triplicates at 20 °C. Glucose-6-phosphate at 333 mM and glucose-6-phosphate-dehydrogenase at 30 U/mL in 100 mM potassium phosphate, pH 8.0 (regeneration system) converted NADP^+ (10 mM in 100 mM potassium phosphate, pH 8.0) into NADPH to initiate the CYP450 reaction. Upon the addition of the fluorescent substrate, immediately (<2 min), the fluorescence signal was monitored over time at suitable excitation and emission wavelengths by Lionheart FX (BioTek, Winooski, VT, USA) (Table S2). CYP450 inhibition (%) was determined based on the reaction rates (fluorescence intensity changes per unit time). A total of n = 60 measurements per minute were acquired for a total time of t = 60 min. % Inhibition= (1 − X/A) × 100%(1) where: X is the rate observed in the presence of test-compound; A is the rate observed in the presence of negative (solvent, DMSO) control.

CYP2D6 = target: T2, CYP2D6 (Homo sapiens, UniProt P10635); assay: Isozyme-specific CYP450 inhibition (Baculosomes); type: in vitro ADME; settings: 1 μM, 60 min
T2 construct: purchased Thermo Fisher Scientific; host or cells: Baculosomes (microsomes of baculovirus-infected insect cells: own knowledge)
T2 sequence (P10635 whole entry): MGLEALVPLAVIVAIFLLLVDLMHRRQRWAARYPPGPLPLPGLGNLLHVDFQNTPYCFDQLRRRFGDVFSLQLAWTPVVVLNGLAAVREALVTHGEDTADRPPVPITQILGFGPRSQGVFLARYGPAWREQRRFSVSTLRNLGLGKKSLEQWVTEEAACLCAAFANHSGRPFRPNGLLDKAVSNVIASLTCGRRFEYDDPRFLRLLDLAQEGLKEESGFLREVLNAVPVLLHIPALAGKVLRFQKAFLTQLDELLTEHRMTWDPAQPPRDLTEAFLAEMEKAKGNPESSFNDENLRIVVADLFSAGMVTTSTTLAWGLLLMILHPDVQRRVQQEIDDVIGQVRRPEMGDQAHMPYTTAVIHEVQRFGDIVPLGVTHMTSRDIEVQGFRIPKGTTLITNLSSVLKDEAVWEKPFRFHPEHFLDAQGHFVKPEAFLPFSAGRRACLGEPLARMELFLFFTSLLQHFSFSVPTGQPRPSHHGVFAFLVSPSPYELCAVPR
Method: as §1

CYP1A2 = target: T3, CYP1A2 (Homo sapiens, UniProt P05177); assay: Isozyme-specific CYP450 inhibition (Baculosomes); type: in vitro ADME; settings: 1 μM, 60 min
T3 construct: purchased Thermo Fisher Scientific; host or cells: Baculosomes (microsomes of baculovirus-infected insect cells: own knowledge)
T3 sequence (P05177 2-516 limits assumed): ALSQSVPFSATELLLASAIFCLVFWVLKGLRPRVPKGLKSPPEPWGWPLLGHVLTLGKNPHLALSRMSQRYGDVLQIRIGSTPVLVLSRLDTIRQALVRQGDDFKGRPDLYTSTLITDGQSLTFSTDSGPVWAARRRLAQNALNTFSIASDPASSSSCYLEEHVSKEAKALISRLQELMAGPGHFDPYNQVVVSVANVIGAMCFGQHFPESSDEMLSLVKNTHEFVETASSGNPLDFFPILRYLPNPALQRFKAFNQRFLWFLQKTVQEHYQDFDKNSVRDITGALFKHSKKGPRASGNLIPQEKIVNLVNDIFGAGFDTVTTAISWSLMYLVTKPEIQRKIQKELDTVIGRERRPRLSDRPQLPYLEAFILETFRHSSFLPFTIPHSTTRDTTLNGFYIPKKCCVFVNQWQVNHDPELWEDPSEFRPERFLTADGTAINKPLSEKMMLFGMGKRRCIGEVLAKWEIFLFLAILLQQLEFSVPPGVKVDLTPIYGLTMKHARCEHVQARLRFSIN
Method: as §1

CYP2B6 = target: T4, CYP2B6 (Homo sapiens, UniProt P20813); assay: Isozyme-specific CYP450 inhibition (Baculosomes); type: in vitro ADME; settings: 1 μM, 60 min
T4 construct: purchased Thermo Fisher Scientific; host or cells: Baculosomes (microsomes of baculovirus-infected insect cells: own knowledge)
T4 sequence (P20813 whole entry): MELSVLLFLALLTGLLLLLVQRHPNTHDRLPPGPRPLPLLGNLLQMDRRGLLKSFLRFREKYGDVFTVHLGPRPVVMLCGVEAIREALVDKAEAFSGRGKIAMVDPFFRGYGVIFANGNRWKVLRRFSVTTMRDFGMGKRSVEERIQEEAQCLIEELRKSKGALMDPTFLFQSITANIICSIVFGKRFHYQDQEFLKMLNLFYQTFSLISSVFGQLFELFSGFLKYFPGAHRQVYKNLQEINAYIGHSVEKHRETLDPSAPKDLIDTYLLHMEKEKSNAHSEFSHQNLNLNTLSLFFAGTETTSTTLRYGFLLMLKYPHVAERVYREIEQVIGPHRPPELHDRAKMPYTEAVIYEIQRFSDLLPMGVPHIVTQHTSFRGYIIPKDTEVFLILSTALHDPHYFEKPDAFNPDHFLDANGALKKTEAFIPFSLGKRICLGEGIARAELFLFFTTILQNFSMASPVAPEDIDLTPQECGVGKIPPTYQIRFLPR
Method: as §1

Erk1/2 = Erk1/2 phosphorylation in PC12 cells (Western blot); type: cell-based
Method: For immunoprecipitation experiments PC12 or HEK293T, cells were used when at 70–80% confluent. Cells were starved of serum for 4 h and subsequently treated with 100 ng/mL NGF or 500 nM of compound ENT-A013 for 30′. Cells were then lysed in Pierce™ IP Lysis Buffer (87788, Thermo Fischer Scientific, Waltham, MA, USA) containing proteases (539138, Calbiochem, Darmstadt, Germany) and phosphatase inhibitors (524629, Calbiochem, Darmstadt, Germany). Lysates were then immunoprecipitated overnight at 4 °C with TrkA antibody (1:100, 06-574, Sigma-Aldrich, St. Louis, MO, USA) (Table S1) or p75^NTR antibody (1:100, ab6172, Abcam plc., Cambridge, UK) followed by 4 h incubation with protein G-plus agarose beads (sc-2002, Santa Cruz Biotechnology, Inc., Dallas, TX, USA). Beads were then collected, washed 3X with lysis buffer, resuspended in SDS loading buffer and subjected to Western blot against phosphorylated Tyrosine (1:1000, BAM1676, R&D Systems, Inc., Minneapolis, MN, USA) or Traf6 antibody (1:2000, ab33915, Abcam, plc., Cambridge, UK). Whole cell lysates were subjected to Western blot against TrkA (1:1000, 06-574, Sigma-Aldrich, St. Louis, MO, USA), phosphorylated TrkB (1:1000, ABN1381, Sigma-Aldrich, St. Louis, MO, USA), phosphorylated TrkC (1:1000, STJ90960, St John’s Laboratory, Ltd., London, UK), TrkB (1:1000, 07-225-I, Sigma-Aldrich, St. Louis, MO, USA), TrkC (1:1000, C44H5, Cell Signaling Technology, Danvers, MA, USA), p75 (1:1000, 839701, Biolegend, Inc., San Diego, CA, USA), Traf6 (1:2000, ab33915, Abcam, plc., Cambridge, UK) phosphorylated Akt (1:1000, 9721S, Cell Signaling Technology, Danvers, MA, USA), phosphorylated Erk1/2 (1:1000, 9101S, Cell Signaling Technology, Danvers, MA, USA), total Akt (1:1000, 4691S Cell Signaling Technology, Danvers, MA, USA) and total Erk1/2 (1:1000, 4695S, Cell Signaling Technology, Danvers, MA, USA).

## CC12CCC(O)CC1=CCC1C2CCC2(C)C1CCC21CC1C=CBr [ENT-A013, (2′R,3S,17S)-2′-(2-Bromovinyl)-5-Androstene-17,1′-Cyclopropan-3-ol]
Hippocampal brain slices
  synaptic potentiation after TBS (in words): significantly increased synaptic potentiation
CYP2C9
  CYP450 inhibition (in words): weak inhibitor
CYP2D6
  CYP450 inhibition (in words): moderate inhibition
CYP1A2
  CYP450 inhibition (in words): weak inhibitor
CYP2B6
  CYP450 inhibition (in words): weak inhibitor
Erk1/2
  time Erk1/2 phosphorylation is sustained after treatment: up to 1 hr
Erk1/2; 500 nM, 30′
  Erk1/2 phosphorylation: 2.5 ± 0.6 % of control FC
